# Publication PMC6181319, “Thermodynamic and computational analyses reveal the functional roles of the galloyl group of tea catechins in molecular recognition” (PLoS ONE, 2018)
# Read-outs that look alike come from different tables or passages of the source. Marks after values point to notes of the source that are not given here.
# Assays:
# [1] = biological target: T1, human serum albumin (HSA) (Homo sapiens, UniProt P02768); experiment: Isothermal titration calorimetry (ITC) of binding of catechins and analogs to HSA; design: purchased Sigma-Aldrich Japan (Tokyo, Japan); details: for change of binding affinity with addition of 0.2 M NaCl: 0.2 M NaCl versus no NaCl
# Method: The binding of the catechins and its analogs to HSA was examined in a VP-ITC instrument (Microcal Northampton, MA). […] The data were analyzed with the Origin software (ver. 7) by means of a single-binding-site model. The thermodynamic parameters were obtained from three replicate titrations, where the dilution heats of the ligands were subtracted.
# [2] = biological target: T1, human serum albumin (HSA); experiment: Differential scanning calorimetry (DSC), thermal stability of HSA–ligand complexes; details: for Tm: DSC, HSA 50 μM, ligand 500 μM, 50 mM sodium phosphate pH 6.8, HSA alone 68.6 ± 0.1; for ΔTm at 500 µM: human, pH 6.8
# Method: The thermal stabilities of HSA and the HSA–ligand complexes were determined by differential scanning calorimetry in a VP-DSC autosampler instrument (GE Healthcare). The cell was heated from 303 to 363 K at a rate of 1 K min^−1. The concentrations of HSA and the ligands were 50 and 500 μM, respectively, in a buffer composed of 50 mM sodium phosphate (pH 6.8). The data analysis was carried out with the Origin software (ver. 7) using a two-state model.
# [3] = biological target: T2, site I of HSA (Homo sapiens, UniProt P02768); experiment: ITC competition assay with warfarin (site I marker); assay type: binding; details: HSA 50 μM, catechin 500 μM, warfarin 500 μM titrated, pH 6.8, 1% DMSO
# T2 construct: purchased Sigma-Aldrich Japan (Tokyo, Japan)
# Method: To obtain information about the HSA binding site of catechins, we carried out competition assays using ITC. Warfarin was used as a marker for monitoring site I of HSA. […] Warfarin was titrated into the cell containing either HSA or an HSA-EGCg complex at 180-s intervals with constant stirring at 307 rpm. The total amount of heat obtained for each measurement was taken as the total heat quantity (ΔQ), and we verified whether warfarin and the catechins bound to the same site by comparing the ΔQ from the interaction between HSA and warfarin. The binding inhibition rate was defined by the equation belowcalculated as follows: […]
# [4] = Table 2, methylated catechin derivatives, ITC, 298 K
# [5] = Table 2, methylated catechin derivatives, ITC, 298 K, 50 mM sodium phosphate pH 6.8
# [6] = Table 2, methylated catechin derivatives, ITC, 298 K, 50 mM sodium phosphate pH 6.8, read-out: KD
# [7] = S1 Table, ITC binding affinity listed beside Tm, read-out: KD
# [8] = Table 1, ITC, 298 K, 50 mM sodium phosphate pH 6.8
# [9] = Table 1, ITC, 298 K, 50 mM sodium phosphate pH 6.8, HSA 50 μM, single-binding-site model
# [10] = Table 1, ITC, 298 K, 50 mM sodium phosphate pH 6.8, read-out: KD
# [11] = human serum albumin (HSA) 50 µM in buffer
# [12] = S2 Table, NaCl 0.2 M, read-out: KD
# T1 sequence (P02768 25-609): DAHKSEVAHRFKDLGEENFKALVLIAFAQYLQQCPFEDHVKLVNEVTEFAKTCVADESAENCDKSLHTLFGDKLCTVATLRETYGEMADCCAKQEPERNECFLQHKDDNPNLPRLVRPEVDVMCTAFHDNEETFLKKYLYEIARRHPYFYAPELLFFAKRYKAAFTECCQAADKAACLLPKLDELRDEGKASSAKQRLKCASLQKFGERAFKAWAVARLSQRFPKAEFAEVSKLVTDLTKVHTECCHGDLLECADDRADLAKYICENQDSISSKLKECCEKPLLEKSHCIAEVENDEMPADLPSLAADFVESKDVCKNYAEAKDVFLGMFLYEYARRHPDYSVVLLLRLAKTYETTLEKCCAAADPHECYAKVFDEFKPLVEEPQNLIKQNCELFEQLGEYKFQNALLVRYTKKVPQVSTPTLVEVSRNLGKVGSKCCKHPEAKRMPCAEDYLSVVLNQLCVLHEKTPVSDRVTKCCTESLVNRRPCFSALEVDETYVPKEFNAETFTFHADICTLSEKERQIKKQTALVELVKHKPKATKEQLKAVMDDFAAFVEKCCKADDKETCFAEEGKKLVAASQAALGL
# T2 sequence (P02768 25-609): as above
smiles,measurement,setting,value
"COc1c(O)cc(C(=O)O[C@@H]2Cc3c(O)cc(O)cc3O[C@@H]2c2cc(O)c(O)c(O)c2)cc1O [EGCg-4′′-O-Me, (−)-epigallocatechin-4′′-O-methylether gallate]",ΔG,[1]; [4],-8.2 ± 0.1 kcal/mol
same,ΔH,[1]; [4],-9.8 ± 0.1 kcal/mol
same,−TΔS,[1]; [4],1.6 ± 0.1 kcal/mol
same,N (number of binding sites),[1]; [5],1.0 ± 0.1
same,Kd,[1]; [6],1 ± 0.1 µM
"O=C(O[C@@H]1Cc2c(O)cc(O)cc2O[C@H]1c1ccc(O)c(O)c1)c1cc(O)c(O)c(O)c1 [Cg, (−)-catechin gallate]",thermodynamic profile of binding (enthalpy-driven or entropy-driven),"[1]; ITC, 298 K",entropy-driven
same,Kd,[1]; [7],3.5 ± 0.5 µM
same,ΔH/ΔG,"[1]; Table 1, ITC, 298 K",38%
same,ΔG,[1]; [8],-7.4 ± 0.1 kcal/mol
same,ΔH,[1]; [8],-2.8 ± 0.6 kcal/mol
same,−TΔS,[1]; [8],-4.6 ± 0.7 kcal/mol
same,N (number of binding sites),[1]; [9],1.0 ± 0.1
same,Kd,[1]; [10],3.5 ± 0.5 µM
same,Tm,[2],71.7 ± 0.1 °C
same,ΔTm at 500 µM,[2]; [11],3.1 °C
"Oc1cc(O)c2c(c1)O[C@@H](c1cc(O)c(O)c(O)c1)[C@H](O)C2 [GC, (−)-gallocatechin]",Kd,"[1]; KD, S1 Table, ITC binding affinity listed beside Tm",52 ± 16 µM
same,Kd,"[1]; KD, Table 1, ITC, 298 K, 50 mM sodium phosphate pH 6.8",52 ± 16 µM
same,ΔH/ΔG,"[1]; Table 1, ITC, 298 K",19%
same,ΔG,[1]; [8],-5.8 ± 0.2 kcal/mol
same,ΔH,[1]; [8],-1.1 ± 0.5 kcal/mol
same,−TΔS,[1]; [8],-4.7 ± 0.7 kcal/mol
same,N (number of binding sites),[1]; [9],1.0 ^b
same,Tm,[2],69.3 ± 0.3 °C
same,ΔTm at 500 µM,[2],0.7 °C
"Oc1cc(O)c2c(c1)O[C@H](c1ccc(O)c(O)c1)[C@H](O)C2 [EC, (−)-epicatechin]",change of binding affinity with addition of 0.2 M NaCl,[1]; ITC,increased
same,thermodynamic profile of binding (enthalpy-driven or entropy-driven),"[1]; ITC, 298 K",entropy-driven
same,Kd,[1]; [7],49 ± 18 µM
same,Kd,"[1]; S2 Table, NaCl 0 M, read-out: KD",48.7 µM
same,Kd,[1]; [12],0.7 µM
same,ΔH/ΔG,"[1]; Table 1, ITC, 298 K",13%
same,ΔG,[1]; [8],-5.8 ± 0.2 kcal/mol
same,ΔH,[1]; [8],-0.8 ± 0.2 kcal/mol
same,−TΔS,[1]; [8],-5.1 ± 0.4 kcal/mol
same,N (number of binding sites),[1]; [9],1.0 ^b
same,Kd,[1]; [10],49 ± 18 µM
same,Tm,[2],68.7 ± 0.3 °C
same,ΔTm at 500 µM,[2]; [11],0 °C
"Oc1cc(O)c2c(c1)O[C@@H](c1ccc(O)c(O)c1)[C@H](O)C2 [C, (+)-catechin]",Kd,[1]; [7],5 ± 8.6 µM
same,ΔH/ΔG,"[1]; Table 1, ITC, 298 K",4%
same,ΔG,[1]; [8],-7.1 ± 0.6 kcal/mol
same,ΔH,[1]; [8],-0.3 ± 0.1 kcal/mol
same,−TΔS,[1]; [8],-6.8 ± 0.7 kcal/mol
same,N (number of binding sites),[1]; [9],1.0 ± 0.2
same,Kd,[1]; [10],5 ± 8.6 µM
same,Tm,[2],68.5 ± 0.1 °C
same,ΔTm at 500 µM,[2]; [11],-0.1 °C
"O=C(O[C@@H]1Cc2c(O)cc(O)cc2O[C@@H]1c1cc(O)c(O)c(O)c1)c1cc(O)c(O)c(O)c1 [EGCg, (−)-epigallocatechin gallate]",change of binding affinity with addition of 0.2 M NaCl,[1]; ITC,decreased
same,thermodynamic profile of binding (enthalpy-driven or entropy-driven),"[1]; ITC, 298 K",enthalpy-driven
same,Kd,[1]; [7],2.2 ± 0.3 µM
same,Kd,[1]; [12],27.3 µM
same,N,"[1]; S3 Table, temperature 288 K",1.1±0.1
same,ΔG,"[1]; S3 Table, temperature 288 K",-7.4 ± 0.1 kcal/mol
same,ΔH,"[1]; S3 Table, temperature 288 K",-3.9 ± 0.5 kcal/mol
same,−TΔS,"[1]; S3 Table, temperature 288 K",-3.5 ± 0.5 kcal/mol
same,Kd,"[1]; S3 Table, temperature 288 K, read-out: KD",2.3 ± 0.1 µM
same,N,"[1]; S3 Table, temperature 293 K",1.1±0.1
same,ΔG,"[1]; S3 Table, temperature 293 K",-7.6 ± 0.7 kcal/mol
same,ΔH,"[1]; S3 Table, temperature 293 K",-4.7 ± 0.7 kcal/mol
same,−TΔS,"[1]; S3 Table, temperature 293 K",-2.9 ± 0.8 kcal/mol
same,Kd,"[1]; S3 Table, temperature 293 K, read-out: KD",2.1 ± 0.7 µM
same,N,"[1]; S3 Table, temperature 298 K",1.1±0.1
same,ΔG,"[1]; S3 Table, temperature 298 K",-7.8 ± 0.4 kcal/mol
same,ΔH,"[1]; S3 Table, temperature 298 K",-5.7 ± 0.7 kcal/mol
same,−TΔS,"[1]; S3 Table, temperature 298 K",-2.1 ± 0.6 kcal/mol
same,Kd,"[1]; S3 Table, temperature 298 K, read-out: KD",2 ± 0.4 µM
same,N,"[1]; S3 Table, temperature 303 K",1.1±0.1
same,ΔG,"[1]; S3 Table, temperature 303 K",-7.9 ± 0.8 kcal/mol
same,ΔH,"[1]; S3 Table, temperature 303 K",-6.1 ± 0.2 kcal/mol
same,−TΔS,"[1]; S3 Table, temperature 303 K",-1.8 ± 0.3 kcal/mol
same,Kd,"[1]; S3 Table, temperature 303 K, read-out: KD",2.1 ± 0.8 µM
same,ΔH/ΔG,"[1]; Table 1, ITC, 298 K",61%
same,ΔG,[1]; [8],-7.7 ± 0.1 kcal/mol
same,ΔH,[1]; [8],-4.7 ± 0.6 kcal/mol
same,−TΔS,[1]; [8],-3.0 ± 0.6 kcal/mol
same,N (number of binding sites),[1]; [9],1.1 ± 0.1
same,Kd,[1]; [10],2.2 ± 0.3 µM
same,ΔG,[1]; [4],-7.7 ± 0.1 kcal/mol
same,−TΔS,[1]; [4],-3.0 ± 0.6 kcal/mol
same,N (number of binding sites),[1]; [5],1.1 ± 0.1
same,Kd,[1]; [6],2.2 ± 0.3 µM
same,ΔCp (change in heat capacity),"[1]; slope of ΔH versus temperature, 288 to 303 K",−148 cal mol^−1 K^−1
same,Tm,[2],71.4 ± 0.3 °C
same,ΔTm at 500 µM,[2]; [11],2.7 °C
same,binding site compared with warfarin,[3],identical
